Source: paper PMC7397156, “Cytotoxic Phenanthrene, Dihydrophenanthrene, and Dihydrostilbene Derivatives and Other Aromatic Compounds from Combretum laxum” (Molecules, 2020)

Legend:
[1] = DPPH-radical-scavenging assay; settings: 30 min, absorbance at 515 nm; mean ± SD, three independent experiments; read-out: Radical-scavenging activity against DPPH, IC50
Procedure: The radical-scavenging activities of compounds 1–6 were determined using DPPH (a stable free radical), employing the method of microdilution in 96-well microplates described by Zhang et al. and Yamaguchi et al., with some modifications. The assays were performed in triplicate, using caffeic acid as a standard compound and a DPPH solution in EtOH (200 µM) as a negative control. Solutions of samples in EtOH at 200 µM were serially diluted to 100, 50, 25, 12.5, and 6.25 µM. Each solution (100 µL) was mixed with 100 µL of DPPH solution. The samples were allowed to stand at room temperature in the dark for 30 min, after which their absorbances were recorded at 515 nm. The ability of test materials to scavenge DPPH radicals was calculated as follows: DPPH scavenging effect (%) = 100 (Acontrol − Asample)/Acontrol. Radical-scavenging activities were assessed on the basis of their IC50 values determined by linear regression.

[2] = system: 786-0; assay: SRB cytotoxicity assay, 786-0 kidney carcinoma cells; settings: Homo sapiens, 786-0, read-out: Cytotoxicity IC50, 786-0
Procedure: (§2) To this end, a sulforhodamine B (SRB; purity ≥ 97%; Sigma, St. Louis, MO, USA) assay was performed, as described elsewhere [53, 54]. […] IC50 values were calculated from the differences in absorbance readings at 540 nm in untreated (negative control) and treated cells on a SpectraMax 190 microplate reader (Molecular Devices, San Jose, CA, USA) [53] through nonlinear regression analysis, using Origin 6.0 software (OriginLab, Northampton, MA, USA), and growth percentages were calculated as described elsewhere [53]. The data presented are the mean ± standard deviation of at least three independent cell preparations made in triplicate.

[3] = system: MCF-7; assay: SRB cytotoxicity assay, MCF-7 breast carcinoma cells; settings: Homo sapiens, MCF7, read-out: Cytotoxicity IC50, MCF-7
Procedure: as §2

[4] = system: NCI/ADR-RES; assay: SRB cytotoxicity assay, NCI/ADR-RES ovary carcinoma cells, multidrug-resistant phenotype; settings: Homo sapiens, read-out: Cytotoxicity IC50, NCI/ADR-RES
Procedure: as §2

[5] = system: Hep2; assay: SRB cytotoxicity assay, Hep2 larynx carcinoma cells; type: cell-based; settings: Homo sapiens, HEp-2, mean ± SD, three independent experiments
[6] = system: UACC-62; assay: SRB cytotoxicity assay, UACC-62 melanoma cells; settings: for IC50: Homo sapiens, UACC-62, read-out: Cytotoxicity IC50, UACC-62
Procedure: as §2

[7] = system: VERO cells; assay: SRB cytotoxicity assay, VERO nonneoplastic cells; type: cell-based, monkey
Text: (§1) In addition, 4 inhibited the proliferation of UACC-62 and VERO cells in a dose-dependent manner.

[8] = SRB cytotoxicity assay, VERO nonneoplastic cells; type: cell-based, monkey; settings: monkey, VERO (monkey kidney) nonneoplastic cells; at 2.5 µg mL^−1
Text: as §1

[9] = 0.25, 2.5 and 25 µg mL^−1, points above zero in growth curves (Figure 2)

| Compound | IC50 [1] [µM] | IC50 [2] [µM] | IC50 [3] [µM] | IC50 [4] [µM] | IC50 [5] [µM] | IC50 [6] [µM] | Effect on UACC-62 cell growth [6, 9] | Concentration from which a cytocidal (cell death) effect is seen on UACC-62 cells ([6]; points below zero in growth curves (Figure 2)) [µg/mL] | Effect on VERO cell growth [7, 9] | IC50 ([7]; Primates, Vero, SRB assay, read-out: IC50 on nontumor mammalian VERO cells) [µM] | viability at 2.5 µg mL^−1 [8] [%] |
| --- | --- | --- | --- | --- | --- | --- | --- | --- | --- | --- | --- |
| O=C(O)/C=C/c1ccc(O)c(O)c1 [Caffeic acid, caffeic acid, reference compound] | 10.9 ± 0.1 | – | – | – | – | – | – | – | – | – | – |
| COc1cc(CCc2cc(OC)c(OC)c(Oc3cc(OC)c(OC)c(OC)c3)c2)ccc1O [Compound 1, 4′-Hydroxy-3,3′,4-trimethoxy-5-(3,4,5-trimethoxyphenoxy)-bibenzyl] | 56.5 ± 0.3 | 113 ± 2.89 | 72.7 ± 4.87 | 32.1 ± 4.31 | 218 ± 2.52 | – | – | – | – | – | – |
| COc1cc2c(ccc3cc(O)cc(OC)c32)cc1O [Compound 2, 2,7-Dihydroxy-4,6-dimethoxyphenanthrene] | 20.4 ± 0.3 | 73.3 ± 7.7 | 118 ± 9.29 | 84 ± 5.4 | > 250 | > 250 | – | – | – | – | – |
| COc1cc2ccc3cc(O)c(OC)c(OC)c3c2cc1O [Compound 3, 2,6-Dihydroxy-3,4,7-trimethoxyphenanthrene] | 45.6 ± 0.3 | 64.3 ± 9.62 | 226 ± 5.09 | 117 ± 2.66 | – | 247 ± 10.3 | – | – | – | – | – |
| COc1cc2c(cc1O)CCc1cc(O)cc(OC)c1-2 [Compound 4, 2,7-dihydroxy-4,6-dimethoxy-9,10-dihydrophenanthrene] | 55.6 ± 0.4 | 57 ± 9.29 | 47 ± 5.55 | 58.8 ± 2.33 | 208 ± 17.1 | 2.59 ± 0.11 | cytostatic (growth inhibition) effect | ≥ 2.5 | cytostatic (growth inhibition) effect | 65.1 ± 4.51 | ~100 |
| COc1cc2c(cc1O)-c1c(cc(O)c(OC)c1OC)CC2 [Compound 5, 2,6-Dihydroxy-3,4,7-trimethoxy-9,10-dihydrophenanthrene] | 32.9 ± 0.3 | 199 ± 6.75 | 42 ± 9.33 | 212 ± 14.1 | 223 ± 2.81 | 222 ± 3.04 | – | – | – | – | – |
| COc1cc2c(cc1O)-c1c(cc(O)cc1OC)CC2 [Compound 6, 2,6-dihydroxy-4,7-dimethoxy-9,10-dihydrophenanthrene] | 17.7 ± 0.3 | 257 ± 6.51 | 160 ± 8.21 | 303 ± 12.6 | 547.58 ± 0.11 | 268 ± 13.8 | – | – | – | – | – |
